Assay results: ChEMBL document CHEMBL4049435, “Development of a Series of Kynurenine 3-Monooxygenase Inhibitors Leading to a Clinical Candidate for the Treatment of Acute Pancreatitis” (J Med Chem, 2017)
Values belong to the compound of their own block, whether it stands above or below them. Calls of active or inactive are those of the source. No cut-off for these calls is given here.

What was measured:
Homo sapiens = species on record: Homo sapiens; assay: Inhibition of IDO (unknown origin)
[1] = molecular target: Tryptophan 2,3-dioxygenase (Homo sapiens) (UniProt P48775); assay: Inhibition of TDO (unknown origin)
Tryptophan 2,3-dioxygenase (Homo sapiens), sequence (P48775 whole entry, looked up): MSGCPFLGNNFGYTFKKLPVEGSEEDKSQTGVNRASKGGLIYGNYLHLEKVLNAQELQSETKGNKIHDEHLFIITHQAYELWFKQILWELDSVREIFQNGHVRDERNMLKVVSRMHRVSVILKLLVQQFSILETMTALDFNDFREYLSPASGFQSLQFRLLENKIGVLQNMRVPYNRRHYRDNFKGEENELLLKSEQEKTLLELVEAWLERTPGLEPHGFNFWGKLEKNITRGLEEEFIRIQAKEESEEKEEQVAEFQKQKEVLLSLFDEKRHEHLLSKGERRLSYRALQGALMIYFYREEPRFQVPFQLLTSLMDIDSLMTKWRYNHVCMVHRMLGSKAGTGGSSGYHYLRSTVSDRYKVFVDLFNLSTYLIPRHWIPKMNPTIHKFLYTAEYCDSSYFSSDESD

[2] = molecular target: T1, Kynurenine--oxoglutarate transaminase 1 (Homo sapiens) (UniProt Q16773); assay: Inhibition of KAT1 (unknown origin)
T1 sequence (whole entry): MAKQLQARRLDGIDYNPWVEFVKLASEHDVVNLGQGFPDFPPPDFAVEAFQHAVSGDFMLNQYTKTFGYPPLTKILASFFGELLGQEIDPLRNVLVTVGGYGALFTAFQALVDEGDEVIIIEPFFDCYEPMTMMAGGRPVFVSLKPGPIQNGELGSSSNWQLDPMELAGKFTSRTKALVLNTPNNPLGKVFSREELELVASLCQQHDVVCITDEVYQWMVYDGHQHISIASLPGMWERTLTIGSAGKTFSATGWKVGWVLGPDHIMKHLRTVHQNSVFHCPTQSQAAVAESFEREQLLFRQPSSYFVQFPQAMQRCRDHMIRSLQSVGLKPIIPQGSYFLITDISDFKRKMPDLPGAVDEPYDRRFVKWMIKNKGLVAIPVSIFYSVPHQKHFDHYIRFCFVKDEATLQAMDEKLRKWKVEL

[3] = molecular target: T2, Kynureninase (Homo sapiens) (UniProt Q16719); assay: Inhibition of kynureninase (unknown origin)
T2 sequence (whole entry): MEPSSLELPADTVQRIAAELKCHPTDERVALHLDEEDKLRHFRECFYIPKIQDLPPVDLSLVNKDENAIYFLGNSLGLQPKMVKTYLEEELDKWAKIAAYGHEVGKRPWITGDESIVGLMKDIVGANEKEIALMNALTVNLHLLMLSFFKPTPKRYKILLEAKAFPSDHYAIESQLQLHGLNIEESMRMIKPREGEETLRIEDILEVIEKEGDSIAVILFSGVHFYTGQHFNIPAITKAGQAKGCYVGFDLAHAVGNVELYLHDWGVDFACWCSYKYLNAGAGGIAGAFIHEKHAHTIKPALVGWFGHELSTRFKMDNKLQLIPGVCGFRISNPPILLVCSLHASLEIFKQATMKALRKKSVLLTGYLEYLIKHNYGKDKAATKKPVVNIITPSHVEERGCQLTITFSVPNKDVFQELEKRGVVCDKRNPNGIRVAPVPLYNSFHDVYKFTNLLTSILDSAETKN

[4] = molecular target: Kynurenine/alpha-aminoadipate aminotransferase, mitochondrial (Homo sapiens) (UniProt Q8N5Z0); assay: Inhibition of KAT2 (unknown origin)
Kynurenine/alpha-aminoadipate aminotransferase, mitochondrial (Homo sapiens), sequence (Q8N5Z0 30-425 limits assumed): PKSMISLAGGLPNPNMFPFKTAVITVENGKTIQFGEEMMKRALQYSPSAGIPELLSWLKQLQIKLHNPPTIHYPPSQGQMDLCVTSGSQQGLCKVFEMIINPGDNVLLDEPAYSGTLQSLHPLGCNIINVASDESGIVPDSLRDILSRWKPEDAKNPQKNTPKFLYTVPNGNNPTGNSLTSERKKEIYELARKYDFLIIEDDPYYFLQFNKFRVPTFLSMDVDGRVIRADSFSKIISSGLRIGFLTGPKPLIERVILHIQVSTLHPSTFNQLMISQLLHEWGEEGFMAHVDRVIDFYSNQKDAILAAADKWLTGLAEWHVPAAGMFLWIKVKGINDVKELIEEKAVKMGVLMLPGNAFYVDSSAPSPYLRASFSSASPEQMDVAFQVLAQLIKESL

Rattus norvegicus [5] = assay: (§1) Effect on circulating tryptophan levels in rat plasma at […], iv administered as bolus dose followed by […], iv infusion for 3 hrs; type: functional, organism-based
Rattus norvegicus [6] = assay: as §1; type: functional, organism-based; remark: listed apart in the source
Rattus norvegicus [7] = assay: as §1; type: functional, organism-based; remark: listed apart in the source
Rattus norvegicus [8] = assay: In vivo inhibition of KMO in iv dosed rat assessed as decrease in circulating 3-hydroxykynurenine levels in plasma measured post last dose; type: functional, organism-based
Rattus norvegicus [9] = assay: (§2) In vivo inhibition of KMO in rat assessed as increase in kynurenine levels in plasma at […], iv administered as bolus followed by […], iv infusion for 3 hrs; type: functional, organism-based
Rattus norvegicus [10] = assay: as §2; type: functional, organism-based; remark: listed apart in the source
Rattus norvegicus [11] = assay: as §2; type: functional, organism-based; remark: listed apart in the source
Rattus norvegicus [12] = assay: Increase in kynurenic acid levels in iv dosed rat plasma measured post last dose; type: functional, organism-based
Rattus norvegicus [13] = assay: Increase in anthranilic acid levels in iv dosed rat plasma measured post last dose; type: functional, organism-based
Rattus norvegicus [14] = assay: Decrease in 3-hydroxykynurenine level in plasma of rat model of cerulean-induced acute pancreatitis at 20 mg/kg, iv administered as bolus dose followed by 2.2 mg/kg/hr 5 hrs iv infusion; type: functional, organism-based
Rattus norvegicus [15] = assay: Increase in kynurenine level in plasma of rat model of cerulean-induced acute pancreatitis at 20 mg/kg, iv administered as bolus dose followed by 2.2 mg/kg/hr 5 hrs iv infusion; type: functional, organism-based
Rattus norvegicus [16] = assay: Organoprotective activity in lung of acute pancreatitis rat model assessed as decrease in levels of protein leak in bronchoalveolar lavage fluid at 20 mg/kg, iv as bolus dose administered 1 hr post acute pancreatitis induction followed by drug administration at 2.2 mg/kg/hr, iv as infusion over 5 hrs; type: functional, organism-based
Rattus norvegicus [17] = assay: (§3) Organoprotective activity in lung of acute pancreatitis rat model assessed as alveolar-epithelial thickening at 20 mg/kg, iv as bolus dose administered 1 hr post acute pancreatitis induction followed by drug administration at 2.2 mg/kg/hr, iv as infusion over 5 hrs by haematoxylin/eosin stain based light microscopic analysis; type: functional, organism-based
Rattus norvegicus [18] = assay: as §3, with “inflammatory infiltrates” for “alveolar-epithelial thickening”; type: functional, organism-based
Rattus norvegicus [19] = assay: Organoprotective activity against acute pancreatitis-induced kidney damage in rat assessed as decrease in plasma creatinine levels at 20 mg/kg, iv as bolus dose administered 1 hr post acute pancreatitis induction followed by drug administration at 2.2 mg/kg/hr, iv as infusion over 5 hrs; type: functional, organism-based
Rattus norvegicus [20] = assay: Organoprotective activity in kidney of acute pancreatitis […] assessed as reduction in apoptotic cell count in the outer medullary stripe at 20 mg/kg, iv as bolus dose administered 1 hr post acute pancreatitis induction followed by drug administration at 2.2 mg/kg/hr, iv as infusion over 5 hrs by TUNEL staining analysis; type: functional, organism-based
Rattus norvegicus [21] = assay: Organoprotective activity against acute pancreatitis-induced pancreatic injury in rat assessed as decrease in serum amylase levels at 20 mg/kg, iv as bolus dose administered 1 hr post acute pancreatitis induction followed by drug administration at 2.2 mg/kg/hr, iv as infusion over 5 hrs; type: functional, organism-based
Rattus norvegicus [22] = assay: Protection against multiple organ dysfunction syndrome in acute pancreatitis-induced rat assessed as decrease in stress response plasma glucose levels at 20 mg/kg, iv as bolus dose administered 1 hr post acute pancreatitis induction followed by drug administration at 2.2 mg/kg/hr, iv as infusion over 5 hrs; type: functional, organism-based
[23] = molecular target: Kynurenine 3-monooxygenase (Homo sapiens, UniProt O15229)
Kynurenine 3-monooxygenase (Homo sapiens, UniProt O15229), sequence (O15229 whole entry, looked up, the tested form may be a part): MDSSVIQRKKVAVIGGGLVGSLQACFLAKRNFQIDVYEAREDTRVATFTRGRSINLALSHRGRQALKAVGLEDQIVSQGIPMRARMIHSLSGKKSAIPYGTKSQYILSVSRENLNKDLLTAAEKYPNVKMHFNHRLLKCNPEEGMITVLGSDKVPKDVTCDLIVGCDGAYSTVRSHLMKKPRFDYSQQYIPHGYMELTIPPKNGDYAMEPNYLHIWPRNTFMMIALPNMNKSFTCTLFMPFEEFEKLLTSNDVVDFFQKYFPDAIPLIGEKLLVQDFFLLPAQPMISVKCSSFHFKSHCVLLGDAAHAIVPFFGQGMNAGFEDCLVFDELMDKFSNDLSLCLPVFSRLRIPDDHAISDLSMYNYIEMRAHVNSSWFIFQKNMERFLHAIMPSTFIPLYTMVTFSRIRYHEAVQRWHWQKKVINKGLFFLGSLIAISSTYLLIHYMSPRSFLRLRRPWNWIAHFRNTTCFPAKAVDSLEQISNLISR

[24] = Drug uptake in plasma of rat model of cerulean-induced acute pancreatitis at 20 mg/kg, iv administered as bolus dose followed by 2.2 mg/kg/hr, iv infusion for 5 hrs; type: ADME, organism-based
[25] = Protein binding in Han-Wistar rat plasma at 1 mg/kg, iv by LC-MS/MS analysis; type: ADME, organism-based; details: read-out: PPB (converted)
[26] = Half life in Han-Wistar rat at 1 mg/kg, iv by LC-MS/MS analysis; type: ADME, organism-based; details: in vivo
[27] = Clearance in Han-Wistar rat blood at 1 mg/kg, iv by LC-MS/MS analysis; type: ADME, organism-based; details: whole blood
[28] = Volume of distribution at steady state in Han-Wistar rat at 1 mg/kg, iv by LC-MS/MS analysis; type: ADME, organism-based; details: in vivo, read-out: Vdss
[29] = Half life of the compound at pH 6 under oxidative condition; type: physicochemical
[30] = Stability of the compound in presence of light measured after 12 hrs; type: physicochemical; details: read-out: Stability
[31] = molecular target: Kynurenine 3-monooxygenase (Rattus norvegicus, UniProt O88867); assay: Inhibition of rat KMO expressed in HEK293 cells using kynurenine as substrate measured after 20 hrs by LC-MS/MS analysis; type: cell-based; details: read-out: Ki(app)
Kynurenine 3-monooxygenase (Rattus norvegicus, UniProt O88867), sequence (O88867 whole entry, the tested form may be a part): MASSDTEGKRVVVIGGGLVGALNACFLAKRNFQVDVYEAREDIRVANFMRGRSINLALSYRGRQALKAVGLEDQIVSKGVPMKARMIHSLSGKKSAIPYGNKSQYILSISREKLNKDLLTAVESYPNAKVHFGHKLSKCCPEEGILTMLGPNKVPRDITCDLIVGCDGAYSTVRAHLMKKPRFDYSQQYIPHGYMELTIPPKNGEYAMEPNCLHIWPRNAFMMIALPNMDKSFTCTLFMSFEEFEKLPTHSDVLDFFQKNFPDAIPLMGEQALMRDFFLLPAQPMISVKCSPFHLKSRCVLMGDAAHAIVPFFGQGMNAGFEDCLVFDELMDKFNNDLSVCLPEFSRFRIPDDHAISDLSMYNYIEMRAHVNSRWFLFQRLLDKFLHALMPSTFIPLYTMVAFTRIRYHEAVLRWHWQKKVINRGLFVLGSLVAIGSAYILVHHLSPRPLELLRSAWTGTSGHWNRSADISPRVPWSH

Plasma [32] = assay: (§4) Unbound fraction in rat plasma at […], iv administered as bolus dose followed by […], iv infusion for 3 hrs; type: ADME, organism-based; details: in vivo
Plasma [33] = assay: as §4; type: ADME, organism-based; details: in vivo; remark: listed apart in the source
Plasma [34] = assay: as §4; type: ADME, organism-based; details: in vivo; remark: listed apart in the source
[35] = Half life in Beagle dog at 1 mg/kg, iv by LC-MS/MS analysis; type: ADME, organism-based, Canis lupus familiaris; details: in vivo
[36] = Clearance in Beagle dog blood at 1 mg/kg, iv by LC-MS/MS analysis; type: ADME, organism-based, Canis lupus familiaris; details: whole blood
[37] = Volume of distribution in Beagle dog at 1 mg/kg, iv by LC-MS/MS analysis; type: ADME, organism-based, Canis lupus familiaris; details: in vivo

inhibition (Homo sapiens): inactive
inhibition [1]: inactive
inhibition [2]: inactive
inhibition [3]: inactive
inhibition [4]: inactive
T1/2 [23]: 10 h
SMILES: C[C@@H](Oc1cc2onc(CCC(=O)O)c2cc1Cl)c1ccccn1
Activity (Rattus norvegicus [5]): inactive
Activity (Rattus norvegicus [6]): inactive
Activity (Rattus norvegicus [7]): inactive
inhibition (Rattus norvegicus [8]): Dose-dependent effect
inhibition (Rattus norvegicus [9]): Active
inhibition (Rattus norvegicus [10]): Active
inhibition (Rattus norvegicus [11]): Active
Activity (Rattus norvegicus [12]): Dose-dependent effect
Activity (Rattus norvegicus [13]): Dose-dependent effect
Activity (Rattus norvegicus [14]): Active
Activity (Rattus norvegicus [15]): Active
Activity (Rattus norvegicus [16]): Active
Activity (Rattus norvegicus [17]): Active
Activity (Rattus norvegicus [18]): Active
Activity (Rattus norvegicus [19]): Active
Activity (Rattus norvegicus [20]): Active
Activity (Rattus norvegicus [21]): Active
Activity (Rattus norvegicus [22]): Active

concentration at 5 h [24]: 600 µM
SMILES: C[C@@H](Oc1cc2onc(CCC(=O)O)c2cc1Cl)c1ccccn1.NCCO

fraction unbound [25]: 0.022
half-life [26]: 6.6 h
clearance [27]: 0.048 L/h/kg
Vd [28]: 0.42 L/kg
half-life [29]: > 1000 h
remaining at 12 h [30]: 97.7%
Ki [31]: 0.045 µM
Cp(f) (Plasma [32]): 0.003 µM
Cp(f) (Plasma [33]): 0.05 µM
Cp(f) (Plasma [34]): 0.405 µM
half-life [35]: 5.8 h
clearance [36]: 0.0558 L/h/kg
Vd [37]: 0.36 L/kg
SMILES: C[C@@H](Oc1cc2onc(CCC(=O)O)c2cc1Cl)c1ccccn1 [GSK-065]
